Measured values from US20240208937A1, “Compounds and Their Use for Treatment of Hemoglobinopathies” (Bristol-Myers Squibb Company, priority 2022, published 2024).

Experiments:
Type in all cases: cell-based
[1] = target: WIZ (Widely interspaced zinc finger) (Homo sapiens (Human), UniProt O95785+Q96SW2); test: HUDEP-2 WIZ HiBiT degradation assay; details: HUDEP-2 WIZ HiBiT cells, 24 hours treatment, luminescence; for DC50: read-out: WIZ EC50
Protocol: (§1) The HiBiT degradation assay for WIZ and ZBTB7A in HUDEP-2 cells was performed as described below. HUDEP-2 cells engineered to express a HiBiT tag in either the WIZ (Widely interspaced zinc finger) or ZBTB7A (Zinc Finger And BTB Domain Containing 7A) proteins were maintained in low attachment flasks in StemSpan SFEM II media supplemented with Penicillin-Streptomycin (50 U/mL), rhSCF (50 ng/mL), rhEPO (3 IU/mL), dexamethasone (0.4 μg/mL) and doxycycline (1 μg/mL). Prior to start of the assay, cell count and viability were measured by trypan blue exclusion using the Vi-cell XR cell viability analyzer. For the HUDEP-2 WIZ HiBiT assay, cells were transferred to a 50 mL conical and centrifuged at 500 g for five minutes. Cells were resuspended in fresh StemSpan SFEM II media supplemented with Penicillin-Streptomycin (50 U/mL), rhSCF (50 ng/mL), rhEPO (3 IU/mL), dexamethasone (0.4 μg/mL) and doxycycline (1 μg/mL) at a density of 1.0×10^6 cells/ml. Forty microliters of cell suspension was dispensed into 384-well Low Flange White Flat Bottom Polystyrene TC-treated Microplates containing pre-dispensed compounds, using a VIAFLO 384 liquid hander, and placed in a 37° C. incubator with 5% CO2. […] After 24 hours of treatment, 40 μL Nano-Glo HiBiT Lytic Detection System reagent was dispensed into each well using a VIAFLO 384 liquid hander. Plates were incubated for 25 minutes at room temperature and the luminescence was read as relative luminescent units using the EnVision plate reader. EC50 and Y-min values were calculated using curves calculated from dotmatics software after the normalization to the DMSO control of 10 different concentrations: 10, 3.33, 1.11, 0.37, 0.12, 0.04 0.0137, 0.0046, 0.0015 and 0.0005 μM respectively.

[2] = target: ZBTB7A (Zinc Finger And BTB Domain Containing 7A) (Homo sapiens (Human), UniProt O95365+Q96SW2); test: HUDEP-2 ZBTB7A HiBiT degradation assay; details: HUDEP-2 ZBTB7A HiBiT cells, 24 hours treatment, luminescence; for DC50: read-out: ZBTB7A EC50
Protocol: as §1
For the HUDEP-2 ZBTB7A HiBiT assay, cell count and viability were measured by trypan blue exclusion using the Vi-cell XR cell viability analyzer and the cells were transferred to a 50 mL conical and centrifuged at 500 g for five minutes. Cells were resuspended in fresh IMDM media supplemented with L-Glutamine (1×), Penicillin-Streptomycin (50 U/mL), holo-transferrin (330 μg/mL), heparin (2 IU/mL), r-human Insulin (10 μg/mL), rhEPO (3 IU/mL), rhSCF (100 ng/mL)+Dox (1 μg/mL) and 5% human plasma in low attachment flasks, which were placed in a 37° C. incubator with 5% CO2. After 48 hours, cell count and viability were measured by trypan blue exclusion using the Vi-cell XR cell viability analyzer. The HUDEP-2 ZBTB7A cells were transferred to a 50 mL conical, centrifuged at 500 g for five minutes and resuspended at a density of 1.0×10^6 cells/ml in IMDM media supplemented with L-Glutamine (1×), Penicillin-Streptomycin (50 U/mL), holo-transferrin (330 μg/mL), heparin (2 IU/mL), r-human Insulin (10 μg/mL), rhEPO (3 IU/mL), rhSCF (100 ng/mL)+Dox (1 μg/mL) and 5% human plasma. Forty microliters of cell suspension was dispensed into 384-well Low Flange White Flat Bottom Polystyrene TC-treated Microplates containing pre-dispensed compounds, using a VIAFLO 384 liquid hander, and placed in a 37° C. incubator with 5% CO2. […] After 24 hours of treatment, 40 μL Nano-Glo HiBiT Lytic Detection System reagent was dispensed into each well using a VIAFLO 384 liquid hander. Plates were incubated for 25 minutes at room temperature and the luminescence was read as relative luminescent units using the EnVision plate reader. EC50 and Y-min values were calculated using curves calculated from dotmatics software after the normalization to the DMSO control of 10 different concentrations: 10, 3.33, 1.11, 0.37, 0.12, 0.04 0.0137, 0.0046, 0.0015 and 0.0005 μM respectively.

[3] = system: fetal hemoglobin (HbF) in GCSF-mobilized human CD34+ cells; test: HbF Induction Assay; details: 168 h; compound 1 μM, 7 days, erythroid-differentiated human CD34+ cells, flow cytometry; DMSO baseline 15% HbF positive cells
Protocol: The expansion, differentiation, and maturation of GCSF-mobilized human CD34^+ (STEMCELL Technologies Inc.) cells towards erythroid lineage cells were performed using a two-phase liquid culture model (Moutouh-de Parseval L A, el al. Pomalidomide and lenalidomide regulate erythropoiesis and fetal hemoglobin production in human CD34+ cells. J Clin Invest. 2008 January; 118(1):248-58). In the first phase, GCSF-mobilized human CD34^+ cells were cultured using StemSpan™-XF (STEMCELL Technologies Inc.) media supplemented with 1×BIT 9500, Penicillin-Streptomycin (50 U/mL), 100 ng/mL recombinant human (rh) SCF, 100 ng/mL rh Flt3-L, 20 ng/mL rh IL-3 and 10 ng/mL rh EPO and the growth of cells maintained in exponential phase for 7 days at 37° C. with 5% CO2 to support expansion and progenitor differentiation prior the second phase and treatment with compounds. In the second phase, culture media was changed to StemSpan™-XF media supplemented with 1×BIT 9500, Penicillin-Streptomycin (50 U/mL), 50 ng/mL rh SCF and 40 ng/mL rh EPO to promote further differentiation and maturation of the erythrocytes and to initiate treatment with compounds. Compounds were dispensed in duplicate at a final concentration of 1 μM in a final DMSO amount of 0.1%. Fresh compound was reapplied, and cell density was kept constant every 2 days. After 7 days, the cells were assessed for viability and fetal hemoglobin expression using flow cytometry. For viability analysis, eBioscience™ Fixable Viability Dye eFluor™ 780 (1:1000, eBioscience; Cat #65-0865-14) was added to the cells and kept in the dark for 10 minutes. For analysis of fetal hemoglobin (HbF), cells were fixed and permeabilized using Fixation Buffer (BioLegend; Cat #420801 and Intracellular staining permeabilization buffer (BioLegend, Cat #420201) following manufacturer's instructions. During permeabilization step, cells were stained with PE-labelled Mouse Anti-Human Fetal Hemoglobin (1:10, clone 2D12; BD Biosciences, Cat #BDB560041) incubated at room temperature for 20 minutes and protected from light. PE-labelled Mouse anti-IgG k, (1:10 clone MOPC-21; BD Biosciences, Cat# BDB551436) was used as an isotype control.
Viability, cell count, and fetal hemoglobin (HbF) levels were measured using an Attune NXT flow cytometer (Thermofisher) and the data analyzed using the FCS express software (De Novo Software). In Table 1 below, the effects of compounds of formula (I), formula (I′), formula (II), formula (II′), and formula (III) on % viable cells, viable cell count, on the % HbF positive cells and the median fluorescent intensity (MFI) of the HbF positive cell population compared to the DMSO controls can be viewed. All gates were set using the isotype negative control. The baseline % HbF positive cells for DMSO-treated control cells was 15%. Compounds of formula (I), formula (I′), formula (II), formula (II′), and formula (III) having HbF induction between 66% and 100% are level A. Compounds of formula (I), formula (I′), formula (II), formula (II′), and formula (III) having HbF induction between 33% and 66% are level B. Compounds of formula (I), formula (I′), formula (II), formula (II′), and formula (III) having HbF induction % less than 33% are level C. For certain compounds of formula (I), formula (I′), formula (II), formula (II′), and formula (III) % HbF induction values 0-33% (activity level C), between 33% and 66% (activity level B), and between 67% and 100% (activity level A) are shown in Table 2 below.

ZBTB7A (Zinc Finger And BTB Domain Containing 7A), sequence (O95365 whole entry, the tested form may be a part): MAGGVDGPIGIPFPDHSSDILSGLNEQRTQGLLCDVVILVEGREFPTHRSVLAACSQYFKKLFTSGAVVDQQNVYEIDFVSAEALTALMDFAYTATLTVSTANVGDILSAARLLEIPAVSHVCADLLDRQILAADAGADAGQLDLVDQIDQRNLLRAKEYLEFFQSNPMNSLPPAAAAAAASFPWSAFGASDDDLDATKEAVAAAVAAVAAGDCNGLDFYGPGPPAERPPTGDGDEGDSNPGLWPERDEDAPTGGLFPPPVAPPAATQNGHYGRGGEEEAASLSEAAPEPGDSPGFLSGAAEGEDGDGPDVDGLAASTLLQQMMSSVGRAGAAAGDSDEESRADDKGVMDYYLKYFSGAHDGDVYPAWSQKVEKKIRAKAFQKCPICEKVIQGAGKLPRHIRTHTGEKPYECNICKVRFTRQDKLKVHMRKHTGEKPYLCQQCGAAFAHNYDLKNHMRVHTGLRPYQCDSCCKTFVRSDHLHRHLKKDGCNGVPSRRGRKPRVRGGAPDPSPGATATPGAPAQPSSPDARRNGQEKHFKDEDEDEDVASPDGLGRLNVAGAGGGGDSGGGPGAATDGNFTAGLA
ZBTB7A (Zinc Finger And BTB Domain Containing 7A), sequence (Q96SW2 whole entry, the tested form may be a part): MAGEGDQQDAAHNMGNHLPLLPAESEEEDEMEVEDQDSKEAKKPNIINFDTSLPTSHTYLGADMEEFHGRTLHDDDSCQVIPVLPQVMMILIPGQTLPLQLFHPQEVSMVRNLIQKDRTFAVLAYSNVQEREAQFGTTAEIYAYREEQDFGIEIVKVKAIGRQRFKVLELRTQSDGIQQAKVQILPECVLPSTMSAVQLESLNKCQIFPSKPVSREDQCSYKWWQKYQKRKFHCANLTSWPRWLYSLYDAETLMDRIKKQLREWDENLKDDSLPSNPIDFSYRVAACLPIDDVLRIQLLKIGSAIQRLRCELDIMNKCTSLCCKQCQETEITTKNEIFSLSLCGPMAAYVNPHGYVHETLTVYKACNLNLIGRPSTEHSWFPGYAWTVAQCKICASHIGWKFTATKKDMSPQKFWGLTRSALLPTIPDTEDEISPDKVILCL
ZBTB7A (Zinc Finger And BTB Domain Containing 7A), sequence (Q16531 whole entry partner, the tested form may be a part): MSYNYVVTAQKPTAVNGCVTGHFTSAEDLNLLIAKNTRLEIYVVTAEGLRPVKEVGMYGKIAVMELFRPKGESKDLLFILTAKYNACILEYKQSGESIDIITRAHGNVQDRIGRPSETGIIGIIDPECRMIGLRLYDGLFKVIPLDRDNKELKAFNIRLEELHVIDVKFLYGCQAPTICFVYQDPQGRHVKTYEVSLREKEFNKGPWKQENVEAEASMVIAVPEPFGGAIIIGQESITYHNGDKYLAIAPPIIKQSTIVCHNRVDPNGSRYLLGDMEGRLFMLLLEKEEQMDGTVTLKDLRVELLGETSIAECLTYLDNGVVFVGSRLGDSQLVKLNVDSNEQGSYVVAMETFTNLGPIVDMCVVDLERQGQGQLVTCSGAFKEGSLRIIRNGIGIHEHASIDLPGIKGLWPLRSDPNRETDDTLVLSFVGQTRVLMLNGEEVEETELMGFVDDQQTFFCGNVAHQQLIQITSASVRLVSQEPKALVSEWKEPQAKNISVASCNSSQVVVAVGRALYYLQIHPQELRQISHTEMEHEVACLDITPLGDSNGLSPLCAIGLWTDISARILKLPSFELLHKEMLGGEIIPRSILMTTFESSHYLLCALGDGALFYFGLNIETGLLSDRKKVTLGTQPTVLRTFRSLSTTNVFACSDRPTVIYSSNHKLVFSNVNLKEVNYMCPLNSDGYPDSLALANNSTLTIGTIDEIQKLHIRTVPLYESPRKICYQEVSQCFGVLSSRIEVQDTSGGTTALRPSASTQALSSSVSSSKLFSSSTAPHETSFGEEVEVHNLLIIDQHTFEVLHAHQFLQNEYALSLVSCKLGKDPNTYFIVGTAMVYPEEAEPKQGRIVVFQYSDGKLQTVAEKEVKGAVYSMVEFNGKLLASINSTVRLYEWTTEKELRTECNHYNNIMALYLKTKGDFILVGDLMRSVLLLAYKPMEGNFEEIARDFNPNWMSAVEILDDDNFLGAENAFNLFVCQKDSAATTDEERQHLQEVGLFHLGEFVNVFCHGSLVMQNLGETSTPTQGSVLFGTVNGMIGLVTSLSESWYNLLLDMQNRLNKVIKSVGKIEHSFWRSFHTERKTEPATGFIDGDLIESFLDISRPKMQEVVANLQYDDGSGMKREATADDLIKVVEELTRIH
WIZ (Widely interspaced zinc finger), sequence (O95785 whole entry, the tested form may be a part): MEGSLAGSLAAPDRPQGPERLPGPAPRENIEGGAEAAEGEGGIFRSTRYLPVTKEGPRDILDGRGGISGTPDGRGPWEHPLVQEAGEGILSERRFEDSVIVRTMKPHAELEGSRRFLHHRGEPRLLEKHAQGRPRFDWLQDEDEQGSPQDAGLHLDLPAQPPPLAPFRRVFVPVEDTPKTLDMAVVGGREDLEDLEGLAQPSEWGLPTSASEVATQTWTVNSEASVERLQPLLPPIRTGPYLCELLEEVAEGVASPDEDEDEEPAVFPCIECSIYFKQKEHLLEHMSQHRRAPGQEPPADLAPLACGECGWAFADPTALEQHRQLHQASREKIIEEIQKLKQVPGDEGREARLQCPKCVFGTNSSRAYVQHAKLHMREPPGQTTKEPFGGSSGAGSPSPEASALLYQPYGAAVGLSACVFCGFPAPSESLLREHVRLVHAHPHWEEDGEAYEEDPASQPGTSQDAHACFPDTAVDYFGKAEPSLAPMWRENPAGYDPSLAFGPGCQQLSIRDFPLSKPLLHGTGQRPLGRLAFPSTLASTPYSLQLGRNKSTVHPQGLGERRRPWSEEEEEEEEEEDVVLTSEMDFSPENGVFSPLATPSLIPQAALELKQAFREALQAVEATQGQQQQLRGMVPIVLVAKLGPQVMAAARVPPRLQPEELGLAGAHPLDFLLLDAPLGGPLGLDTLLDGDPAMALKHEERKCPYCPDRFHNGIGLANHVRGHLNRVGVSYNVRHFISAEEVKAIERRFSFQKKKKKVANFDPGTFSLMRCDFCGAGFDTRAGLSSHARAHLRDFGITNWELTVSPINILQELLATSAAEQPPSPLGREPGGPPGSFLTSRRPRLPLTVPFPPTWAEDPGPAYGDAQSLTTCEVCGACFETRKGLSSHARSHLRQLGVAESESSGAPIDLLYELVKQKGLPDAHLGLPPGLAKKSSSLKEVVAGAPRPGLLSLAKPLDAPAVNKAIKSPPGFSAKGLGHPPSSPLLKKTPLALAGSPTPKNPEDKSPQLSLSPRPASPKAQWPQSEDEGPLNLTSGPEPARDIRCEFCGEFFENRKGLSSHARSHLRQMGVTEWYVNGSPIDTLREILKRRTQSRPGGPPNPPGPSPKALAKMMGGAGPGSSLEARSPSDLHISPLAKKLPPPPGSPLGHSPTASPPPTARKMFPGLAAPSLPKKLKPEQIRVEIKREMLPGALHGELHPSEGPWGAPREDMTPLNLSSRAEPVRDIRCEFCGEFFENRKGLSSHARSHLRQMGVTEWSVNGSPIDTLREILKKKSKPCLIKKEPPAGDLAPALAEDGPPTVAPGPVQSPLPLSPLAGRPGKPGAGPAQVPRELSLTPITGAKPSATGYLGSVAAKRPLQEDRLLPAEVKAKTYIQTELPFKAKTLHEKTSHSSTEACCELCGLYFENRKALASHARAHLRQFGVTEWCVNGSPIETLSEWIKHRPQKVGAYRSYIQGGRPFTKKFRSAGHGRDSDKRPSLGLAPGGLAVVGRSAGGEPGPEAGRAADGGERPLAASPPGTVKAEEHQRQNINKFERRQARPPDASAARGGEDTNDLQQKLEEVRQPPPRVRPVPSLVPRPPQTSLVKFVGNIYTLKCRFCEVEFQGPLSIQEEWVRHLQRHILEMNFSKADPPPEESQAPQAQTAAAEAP
WIZ (Widely interspaced zinc finger), sequence (Q96SW2 whole entry, the tested form may be a part): as the sequence (Q96SW2 whole entry, the tested form may be a part) above
WIZ (Widely interspaced zinc finger), sequence (Q16531 whole entry partner, the tested form may be a part): as the sequence (Q16531 whole entry partner, the tested form may be a part) above

Row | Structure (SMILES) | DC50 [1] [nM] | DC50 [2] [nM] | activation at 1 µM [3] [%] | EC50 [2] [nM] | EC50 [1] [nM]
1 | Cc1cc(-c2cc3ncn(C4CC4)c3cc2Nc2cccc3c2C(=O)N(C2CCC(=O)NC2=O)C3=O)ccn1 (stereo not drawn) [Compound 2, 4-((1-cyclopropyl-5-(2-methylpyridin-4-yl)-1H-benzo[d]imidazol-6-yl)amino)-2-(2,6-dioxopiperidin-3-yl)isoindoline-1,3-dione] | < 10 | < 30 | 66 to 100 |  | 
2 | Cc1cc(-c2cc3c(cc2Nc2cccc4c2C(=O)N(C2CCC(=O)NC2=O)C4=O)c(C)nn3C)ccn1 (stereo not drawn) [Compound 3, 4-((1,3-dimethyl-6-(2-methylpyridin-4-yl)-1H-indazol-5-yl)amino)-2-(2,6-dioxopiperidin-3-yl)isoindoline-1,3-dione] | 10 to 100 |  | 66 to 100 | < 30 | 
3 | Cc1cc(-c2cc3c(cnn3C3CCOCC3)cc2Nc2cccc3c2C(=O)N(C2CCC(=O)NC2=O)C3=O)ccn1 (stereo not drawn) [Compound 4, 2-(2,6-dioxopiperidin-3-yl)-4-((6-(2-methylpyridin-4-yl)-1-(tetrahydro-2H-pyran-4-yl)-1H-indazol-5-yl)amino)isoindoline-1,3-dione] | 10 to 100 | 30 to 100 | 66 to 100 |  | 
4 | COc1ccc(-c2cc3ncn(C)c3cc2Nc2cccc3c2C(=O)N(C2CCC(=O)NC2=O)C3=O)cc1F (stereo not drawn) [Compound 5, 2-(2,6-dioxopiperidin-3-yl)-4-((5-(3-fluoro-4-methoxyphenyl)-1-methyl-1H-benzo[d]imidazol-6-yl)amino)isoindoline-1,3-dione] | 10 to 100 | 30 to 100 | 66 to 100 |  | 
5 | Cc1cccc(F)c1Oc1ccc2c(cnn2C)c1Nc1cccc2c1C(=O)N(C1CCC(=O)NC1=O)C2=O (stereo not drawn) [Compound 6, 2-(2,6-dioxopiperidin-3-yl)-4-((5-(2-fluoro-6-methylphenoxy)-1-methyl-1H-indazol-4-yl)amino)isoindoline-1,3-dione] |  | 30 to 100 | 66 to 100 |  | < 10
6 | Cc1cc(-c2cc3cnn(C)c3cc2Nc2cccc3c2C(=O)N(C2CCC(=O)NC2=O)C3=O)ccn1 (stereo not drawn) [Compound 7, 2-(2,6-dioxopiperidin-3-yl)-4-((1-methyl-5-(2-methylpyridin-4-yl)-1H-indazol-6-yl)amino)isoindoline-1,3-dione] | 10 to 100 | 30 to 100 | 66 to 100 |  | 
7 | Cc1cc(-c2cc3onc(C)c3cc2Nc2cccc3c2C(=O)N(C2CCC(=O)NC2=O)C3=O)ccn1 (stereo not drawn) [Compound 8, 2-(2,6-dioxopiperidin-3-yl)-4-((3-methyl-6-(2-methylpyridin-4-yl)benzo[d]isoxazol-5-yl)amino)isoindoline-1,3-dione] | 10 to 100 | 30 to 100 | 66 to 100 |  | 
8 | CN(C)CCOc1cc(Oc2ccccc2)c(Nc2cccc3c2C(=O)N(C2CCC(=O)NC2=O)C3=O)cn1 (stereo not drawn) [Compound 9, 4-((6-(2-(dimethylamino)ethoxy)-4-phenoxypyridin-3-yl)amino)-2-(2,6-dioxopiperidin-3-yl)isoindoline-1,3-dione] |  | 30 to 100 | 66 to 100 |  | < 10
9 | O=C1CCC(N2C(=O)c3cccc(Nc4cc5cnn(C6CCOCC6)c5cc4C4CC4)c3C2=O)C(=O)N1 (stereo not drawn) [Compound 10, 4-((6-cyclopropyl-1-(tetrahydro-2H-pyran-4-yl)-1H-indazol-5-yl)amino)-2-(2,6-dioxopiperidin-3-yl)isoindoline-1,3-dione] |  |  | 66 to 100 | > 100 | < 10
10 | O=C1CCC(N2C(=O)c3cccc(Nc4cc5cnn(C6CCOCC6)c5cc4-c4ccnc(C(F)F)c4)c3C2=O)C(=O)N1 (stereo not drawn) [Compound 11, 4-((6-(2-(difluoromethyl)pyridin-4-yl)-1-(tetrahydro-2H-pyran-4-yl)-1H-indazol-5-yl)amino)-2-(2,6-dioxopiperidin-3-yl)isoindoline-1,3-dione] | > 100 |  | 66 to 100 | > 100 | 
11 | COc1cc(OCCN2CCCCC2)ccc1Nc1cccc2c1C(=O)N(C1CCC(=O)NC1=O)C2=O (stereo not drawn) [Compound 12, 2-(2,6-dioxopiperidin-3-yl)-4-((2-methoxy-4-(2-(piperidin-1-yl)ethoxy)phenyl)amino)isoindoline-1,3-dione] |  | 30 to 100 | 66 to 100 |  | < 10
12 | O=C1CCC(N2C(=O)c3cccc(Nc4c(Oc5ccccc5Cl)ccc5c4cnn5C4CCOCC4)c3C2=O)C(=O)N1 (stereo not drawn) [Compound 13, 4-((5-(2-chlorophenoxy)-1-(tetrahydro-2H-pyran-4-yl)-1H-indazol-4-yl)amino)-2-(2,6-dioxopiperidin-3-yl)isoindoline-1,3-dione] | 10 to 100 | 30 to 100 | 66 to 100 |  | 
